Drawing on BindingDB's records for doi:10.1016/j.bmcl.2013.03.093 (Rhône-Poulenc Rorer, 2013), this text covers IC50 for five compounds.

A word on the IC50: it is the point on the concentration scale where inhibition reaches its midpoint.

The nature of the assay: Antagonist activity at CRTh2 receptor in human whole blood assessed as inhibition of PGD2-induced eosinophil shape change preincubated for 10 mins followed by PGD2 addition measured after 4 mins by side scatter analysis.

As for `Cc1c(CC(=O)O)c(=O)[nH]n1Cc1ccccc1S(=O)(=O)c1ccccc1`, the concentration for half-maximal inhibition (IC50) turned out to be 1000 nM.
With `Cc1c(CC(=O)O)c(-c2ccc(Cl)cc2)nn1Cc1ccccc1S(=O)(=O)c1ccccc1` the figure was 8100 nM.
In the case of `Cc1c(CC(=O)O)c(-c2ccccc2)nn1Cc1ccccc1S(=O)(=O)c1ccccc1`, the concentration for half-maximal inhibition (IC50) was determined as 2400 nM.
For the compound `Cc1nn(Cc2ccccc2S(=O)(=O)c2ccccc2)c(C)c1CC(=O)O`, the IC50 was 1700 nM.
In the case of `Cc1nn(-c2cccc(NC(=O)[C@H]3C[C@@H]3c3ccccc3)c2)c(C)c1CC(=O)O`, the concentration for half-maximal inhibition (IC50) was 2100 nM.
